The record followed here is PubChem BioAssay AID264 (DTP/NCI, 2004).

Each structure is given as a SMILES string. Several values for one entry are separate records, joined by “and”; a condition that tells them apart may be missing. Identical values can stand only once. Results filed as inconclusive are left out.

The assay concerns nude mice, LX-1 lung xenograft intrarenal, tumor weight T/C. In words: NCI In Vivo Anticancer Drug Screen. Data for tumor model Human Lung LX-1 Xenograft (intrarenal inoculation) in NU/NU Swiss (nude) mice. The settings on record: endpoint: mean tumor weight change, higher = larger tumour. The procedure: The antitumor activity of compounds was measured in mice bearing transplantable tumors. Survival or tumor size were measured and the results are expressed as the measurement made in the treated group (T) divided by the measurement made in the vehicle treated control group (C). The tumor model used in this assay is Human Lung LX-1 Xenograft (intrarenal inoculation) in NU/NU Swiss (nude) mice

Where [1] appears, read: dose: 300.0 mg/kg/injection, schedule: Q04DX003 (sc), vehicle: Klucel (hydroxypropylcellulose) (HPC).
[2] abbreviates: dose: 600.0 mg/kg/injection, schedule: Q04DX003 (sc), vehicle: Klucel (hydroxypropylcellulose) (HPC).
Setting [3] is: dose: 1200.0 mg/kg/injection, schedule: Q04DX003 (sc), vehicle: Klucel (hydroxypropylcellulose) (HPC).
Setting [4] is: dose: 50.0 mg/kg/injection, schedule: Q01DX010 (sc), vehicle: saline with Tween-80.
Setting [5] is: dose: 100.0 mg/kg/injection, schedule: Q01DX010 (sc), vehicle: saline with Tween-80.
The mark [6] stands for this setting: dose: 200.0 mg/kg/injection, schedule: Q01DX010 (sc), vehicle: saline with Tween-80.
Setting [7] is: dose: 400.0 mg/kg/injection, schedule: Q01DX010 (sc), vehicle: saline with Tween-80.
The mark [8] stands for this setting: dose: 100.0 mg/kg/injection, schedule: Q04DX003 (sc), vehicle: water.

Take `O=c1nc(-c2ccco2)sc(=O)[nH]1`: the T/C (dose: 150.0 mg/kg/injection, schedule: Q04DX003 (sc), vehicle: Klucel (hydroxypropylcellulose) (HPC)) was 90 % of control; the T/C under setting [1] was 68 % of control; the T/C under setting [2] was 53 % of control; the T/C under setting [3] was 38 % of control.
As for `C1=CCOCOC1`, the T/C runs as follows: under setting [4], 83 % of control; under setting [5], 105 % of control; under setting [6], 81 % of control; under setting [7], 46 % of control.
For `Cc1ccc2c(c1)N=C(Nc1ccccc1)N=S2(C)=O` (stereo not drawn), the T/C was 101 % of control (dose: 100.0 mg/kg/injection, schedule: Q04DX003 (sc), vehicle: saline with Tween-80); 90 % of control (dose: 200.0 mg/kg/injection, schedule: Q04DX003 (sc), vehicle: saline with Tween-80); 97 % of control (dose: 400.0 mg/kg/injection, schedule: Q04DX003 (sc), vehicle: saline with Tween-80).
In the case of `O=NN(CCCl)C(=O)Oc1cc(Cl)c(Cl)cc1Cl`, the T/C was 104 % of control under setting [1], 53 % of control under setting [2] and 29 % of control under setting [3].
With `CO[C@H](C(=O)[C@@H](O)[C@@H](C)O)[C@@H]1Cc2cc3cc(OC4CC(OC5CC(O)C(O)C(C)O5)C(O)C(C)O4)c(C)c(O)c3c(O)c2C(=O)[C@H]1OC1CC(OC2CC(OC3CC(C)(O)C(O)C(C)O3)C(O)C(C)O2)C(O)C(C)O1` (stereo partly drawn), the T/C reads like this: (dose: 0.25 mg/kg/injection, schedule: Q01DX010 (sc), vehicle: saline) 120 % of control; (dose: 0.25 mg/kg/injection, schedule: Q04DX003 (sc), vehicle: saline) 76 % of control; (dose: 0.5 mg/kg/injection, schedule: Q04DX003 (sc), vehicle: saline) 87 % of control; (dose: 0.75 mg/kg/injection, schedule: Q04DX003 (sc), vehicle: saline) 101 % of control; (dose: 1.0 mg/kg/injection, schedule: Q04DX003 (sc), vehicle: saline) 96 % of control; (dose: 1.5 mg/kg/injection, schedule: Q04DX003 (sc), vehicle: saline) 78 % of control. Besides, the T/C by setting is: (dose: 2.0 mg/kg/injection, schedule: Q01DX010 (sc), vehicle: saline) -51 % of control; (dose: 2.0 mg/kg/injection, schedule: Q04DX003 (sc), vehicle: saline) 20 % of control; (dose: 3.0 mg/kg/injection, schedule: Q04DX003 (sc), vehicle: saline) 40 % of control.
For the compound `COc1ccc(-c2cc(C(=O)Nc3cc(C(F)(F)F)cc(C(F)(F)F)c3)c3ccccc3n2)cc1`, the T/C is 75 % of control (dose: 150.0 mg/kg/injection, schedule: Q04DX003 (ip), vehicle: DMSO); 104 % of control (dose: 300.0 mg/kg/injection, schedule: Q04DX003 (ip), vehicle: DMSO); 68 % of control (dose: 600.0 mg/kg/injection, schedule: Q04DX003 (ip), vehicle: DMSO).
On to `O=C(Nc1ccc(Cl)c(Cl)c1)Nc1c(Oc2ccc(Cl)c(Cl)c2)ccc(Cl)c1S(=O)(=O)O`, for which the T/C reads like this: (dose: 100.0 mg/kg/injection, schedule: Q01DX010 (sc), vehicle: Klucel (hydroxypropylcellulose) (HPC)) 43 % of control; (dose: 200.0 mg/kg/injection, schedule: Q01DX010 (sc), vehicle: Klucel (hydroxypropylcellulose) (HPC)) 50 % of control; (dose: 400.0 mg/kg/injection, schedule: Q01DX010 (sc), vehicle: Klucel (hydroxypropylcellulose) (HPC)) 69 % of control; (dose: 800.0 mg/kg/injection, schedule: Q01DX010 (sc), vehicle: Klucel (hydroxypropylcellulose) (HPC)) 60 % of control.
Turning to `CNc1nc(N(C)C)nc(N(C)C)n1`, the T/C (dose: 12.5 mg/kg/injection, schedule: Q04DX003 (sc), vehicle: water) was 177 % of control; the T/C (dose: 15.0 mg/kg/injection, schedule: Q01DX010 (ip), vehicle: water) was 55 % of control; the T/C (dose: 15.0 mg/kg/injection, schedule: Q01DX010 (sc), vehicle: water) is 121 % of control; the T/C (dose: 30.0 mg/kg/injection, schedule: Q01DX010 (ip), vehicle: water) was 287 % of control; the T/C (dose: 30.0 mg/kg/injection, schedule: Q01DX010 (sc), vehicle: water) was 56 % of control; the T/C (dose: 50.0 mg/kg/injection, schedule: Q04DX003 (ip), vehicle: water) is 67 % of control. In addition, the T/C is 71 % of control (dose: 60.0 mg/kg/injection, schedule: Q01DX010 (ip), vehicle: water); 69 % of control (dose: 60.0 mg/kg/injection, schedule: Q01DX010 (sc), vehicle: water); 59 % of control (dose: 100.0 mg/kg/injection, schedule: Q04DX003 (ip), vehicle: water); 114 % of control and 218 % of control under setting [8]; 64 % of control (dose: 120.0 mg/kg/injection, schedule: Q01DX010 (sc), vehicle: water); 54 % of control (dose: 200.0 mg/kg/injection, schedule: Q04DX003 (ip), vehicle: water).
As to `O=C(CO)c1ccc([N+](=O)[O-])cc1`, the T/C by setting is: under setting [4], 78 % of control; under setting [5], 86 % of control; under setting [6], 103 % of control; under setting [7], 70 % of control.
Regarding `CCCC(=O)O.CCCC(=O)O.CCCC(=O)O.CCCC(=O)O.[Rh].[Rh]`, the T/C (dose: 2.0 mg/kg/injection, schedule: Q04DX003 (sc), vehicle: suspension in saline) was 48 % of control; the T/C (dose: 4.0 mg/kg/injection, schedule: Q04DX003 (sc), vehicle: suspension in saline) is 51 % of control; the T/C (dose: 8.0 mg/kg/injection, schedule: Q04DX003 (sc), vehicle: suspension in saline) is 42 % of control; the T/C (dose: 16.0 mg/kg/injection, schedule: Q04DX003 (sc), vehicle: suspension in saline) is 55 % of control.
In the case of `O=C(O)C1CC1.[Ag]`, the T/C runs as follows: (dose: 37.5 mg/kg/injection, schedule: Q04DX003 (sc), vehicle: saline with Tween-80) 63 % of control; (dose: 75.0 mg/kg/injection, schedule: Q04DX003 (sc), vehicle: saline with Tween-80) 57 % of control; (dose: 150.0 mg/kg/injection, schedule: Q04DX003 (sc), vehicle: saline with Tween-80) 62 % of control; (dose: 300.0 mg/kg/injection, schedule: Q04DX003 (sc), vehicle: saline with Tween-80) 54 % of control.
Turning to `COC1/C=C/O[C@@]2(C)Oc3c(C)c(O)c4c(O)c(cc(O)c4c3C2=O)NC(=O)/C(C)=C\C=C\[C@H](C)C(O)[C@@H](C)[C@@H](O)[C@@H](C)[C@H](OC(C)=O)[C@@H]1C` (stereo partly drawn), the T/C by setting is: (dose: 300.0 mg/kg/injection, schedule: Q04DX003 (sc), vehicle: suspension in saline) 60 % of control; (dose: 600.0 mg/kg/injection, schedule: Q04DX003 (sc), vehicle: suspension in saline) 84 % of control; (dose: 1200.0 mg/kg/injection, schedule: Q04DX003 (sc), vehicle: suspension in saline) 53 % of control; (dose: 2400.0 mg/kg/injection, schedule: Q04DX003 (sc), vehicle: suspension in saline) 64 % of control.
Regarding `Nc1n[n+](-c2ccc(Cl)cc2)no1`, the T/C (dose: 25.0 mg/kg/injection, schedule: Q04DX003 (sc), vehicle: water) is 102 % of control and the T/C under setting [8] was 95 % of control.
As to `CCOC(=O)Nc1cc2c(c(N)n1)N=C(c1ccccc1)CN2`, the T/C by setting is: (dose: 3.12 mg/kg/injection, schedule: Q04DX003 (sc), vehicle: saline with Tween-80) 68 % of control; (dose: 6.25 mg/kg/injection, schedule: Q04DX003 (sc), vehicle: saline with Tween-80) 82 % of control and 96 % of control; (dose: 12.5 mg/kg/injection, schedule: Q04DX003 (sc), vehicle: saline with Tween-80) 73 % of control; (dose: 25.0 mg/kg/injection, schedule: Q04DX003 (sc), vehicle: saline with Tween-80) 30 % of control and 54 % of control.
For the compound `CCCCCCCCCCCC(=O)NC1CC(O[C@H]2C[C@](O)(C(=O)CO)Cc3c(O)c4c(c(O)c32)C(=O)c2c(OC)cccc2C4=O)OC(C)C1O` (stereo partly drawn), the T/C is, setting by setting: (dose: 300.0 mg/kg/injection, schedule: Q04DX003 (sc), vehicle: water) 5 % of control; (dose: 600.0 mg/kg/injection, schedule: Q04DX003 (sc), vehicle: water) 76 % of control; (dose: 1200.0 mg/kg/injection, schedule: Q04DX003 (sc), vehicle: water) 55 % of control; (dose: 2400.0 mg/kg/injection, schedule: Q04DX003 (sc), vehicle: water) 118 % of control.
